Assay results published in US11839214B2, “Fungicidal mixture comprising substituted pyridines” (BASF SE, priority 2017, dated 2023).

Key:
Assay type in all cases: cell-based
Pyricularia oryzae = assay: microbe, parasite or virus in culture
Botrytis cinerea = assay: Activity against the grey mold Botrytis cinerea in the microtiterplate test; details: single active compound; for inhibition of growth at 0.25 ppm / inhibition of growth at 1 ppm / inhibition of growth at 4 ppm / inhibition of growth at 16 ppm: Botrytis cinerea, 168 h, read-out: Observed efficacy
Sclerotinia sclerotiorum = assay: Activity against Sclerotinia sclerotiorum in the microtiterplate test; details: single active compound
Septoria tritici = assay: Activity against leaf blotch on wheat caused by Septoria tritici (microtiterplate test); details: single active; for inhibition of growth at 1 ppm / inhibition of growth at 4 ppm / inhibition of growth at 16 ppm / inhibition of growth at 0.25 ppm / inhibition of growth at 0.063 ppm: Zymoseptoria tritici, 168 h, read-out: Observed efficacy
[1] = Pyricularia oryzae, 168 h, read-out: Observed efficacy
[2] = Sclerotinia sclerotiorum, 168 h, read-out: Observed efficacy
[3] = Sclerotinia sclerotiorum, 168 h, 4 ppm, read-out: Observed efficacy

SMILES	inhibition of growth at 0.25 ppm (Pyricularia oryzae; [1]) [%]	inhibition of growth at 1 ppm (Pyricularia oryzae; [1]) [%]	inhibition of growth at 4 ppm (Pyricularia oryzae; [1]) [%]	inhibition of growth at 1 ppm (Botrytis cinerea; 1 ppm) [%]	inhibition of growth at 4 ppm (Botrytis cinerea) [%]	inhibition of growth at 16 ppm (Botrytis cinerea) [%]	inhibition of growth at 1 ppm (Sclerotinia sclerotiorum; [2]) [%]	inhibition of growth at 4 ppm (Sclerotinia sclerotiorum; [3]) [%]	inhibition of growth at 1 ppm (Septoria tritici; 1 ppm) [%]	inhibition of growth at 4 ppm (Septoria tritici) [%]	inhibition of growth at 16 ppm (Septoria tritici) [%]	inhibition of growth at 0.25 ppm (Septoria tritici) [%]	also measured
Cc1cc(C2=NC(C)(C)C(F)(F)c3ccccc32)cnc1C [Compound 1-1]	23	24	53	13	16	19	7	10	9	18	37		inhibition of growth at 0.25 ppm (Botrytis cinerea): 13%; inhibition of growth at 0.25 ppm (Sclerotinia sclerotiorum; Sclerotinia sclerotiorum, 168 h, 0.25 ppm, read-out: Observed efficacy): 7%; inhibition of growth at 16 ppm (Sclerotinia sclerotiorum; Sclerotinia sclerotiorum, 168 h, 16 ppm, read-out: Observed efficacy): 32%
Cc1cc(C2=NC(C)(C)C(F)(F)c3ccccc32)cnc1C(F)F [Compound 1-2]	20	32		15	19	31		16	6	29		12	inhibition of growth at 0.063 ppm (Pyricularia oryzae; [1]): 14%
Cc1ncc(C2=NC(C)(C)C(F)(F)c3ccccc32)cc1CF [Compound 1-3]		26	52	6	9	19	3	8	9	13	34	13	inhibition of growth at 0.025 ppm (Pyricularia oryzae; [1]): 20%; inhibition of growth at 0.063 ppm (Septoria tritici): 11%
N#Cc1sc2c(=O)c3ccccc3c(=O)c=2sc1C#N [Dithianon, dithianon]	36						36					82	inhibition of growth at 0.063 ppm (Pyricularia oryzae; [1]): 14%; inhibition of growth at 0.25 ppm (Botrytis cinerea): 4%; inhibition of growth at 0.063 ppm (Septoria tritici): 22%
CC(C)O/N=C(/CNC(=O)c1cn(C)nc1C(F)F)c1ncc(C#CC2CC2)cc1Cl [Pyrapropyon, pyrapropoyne]			1		35	71		55	42				inhibition of growth at 16 ppm (Pyricularia oryzae; [1]): 4%
Cc1cc(C)nc(Nc2ccccc2)n1 [Pyrimethanil, pyrimethanil]				50	72		15	21	6		21		
CC1(C)N=C(c2cnc3ccccc3c2)c2ccccc2C1(F)F [Quinofumelin, quinofumelin]													Observed efficacy (Pyricularia oryzae; single active compound, 1 ppm): 34%; Observed efficacy (Botrytis cinerea; 1 ppm): 30%; Observed efficacy (Sclerotinia sclerotiorum; 4 ppm): 65%; Observed efficacy (Septoria tritici; 1 ppm): 41%
